Residues, ends and D or L forms follow the SMILES beside them.

This is an account of results in patent US20120308590A1, “IMP-3 OLIGOPEPTIDES AND VACCINES INCLUDING THE SAME” (OncoTherapy Science, Inc., priority 2009, published 2012).

What all share (type): cell-based, human
Data set [1] relates to MCF7/IMP-3 (MCF7 cells transfected with IMP-3 gene). Put plainly: 51Cr release assay of peptide-induced CTLs against transfected cell line. To be noted: CTL lines generated from the healthy donors (FIG. 5C). The protocol: (§1) The expression of IMP-3 was determined by reverse transcription-polymerase chain reaction analysis. […] The DCs were pulsed with 20 micro-g/mL of the candidate peptides in the presence of 4 micro-g/mL beta2-microglobulin (Sigma-Aldrich, St. Louis, Mo., USA) for 2 hours at 37 degrees C. in AIM-V (Invitrogen Japan, Tokyo, Japan) containing 2% heat-inactivated autologous plasma. The cells were then irradiated (40 Gy) and incubated with the CD8^+ T cells. […] After 2 days, these cultures were supplemented with human recombinant IL-2 (PeproTech, Rocky Hill, N.J., USA) to a final concentration of 20 IU/mL. Two additional weekly stimulations with peptide-loaded autologous DCs, using the same procedure, were carried out on days 7 and 14. Six days after the last stimulation, the antigen-specific responses of the induced CTLs were investigated by IFN-gamma ELISPOT assay and ^51Cr release assay. […] For ^51Cr release assay, CTLs were co-cultured with peptide-pulsed T2 cells or cancer cells as a target cells (5×10^3/well) at the indicated effector/target ratio and a standard ^51Cr release assay was done as described previously (Komori H et al., Clin Cancer Res. 2006 May 1; 12 (9):2689-97).

Data set [2] relates to T2 cells pulsed with cognate peptides. Put plainly: 51Cr release assay of peptide-induced CTLs against peptide-pulsed T2 cells. The protocol: The DCs were pulsed with 20 micro-g/mL of the candidate peptides in the presence of 4 micro-g/mL beta2-microglobulin (Sigma-Aldrich, St. Louis, Mo., USA) for 2 hours at 37 degrees C. in AIM-V (Invitrogen Japan, Tokyo, Japan) containing 2% heat-inactivated autologous plasma. The cells were then irradiated (40 Gy) and incubated with the CD8^+ T cells. […] After 2 days, these cultures were supplemented with human recombinant IL-2 (PeproTech, Rocky Hill, N.J., USA) to a final concentration of 20 IU/mL. Two additional weekly stimulations with peptide-loaded autologous DCs, using the same procedure, were carried out on days 7 and 14. Six days after the last stimulation, the antigen-specific responses of the induced CTLs were investigated by IFN-gamma ELISPOT assay and ^51Cr release assay. […] For ^51Cr release assay, CTLs were co-cultured with peptide-pulsed T2 cells or cancer cells as a target cells (5×10^3/well) at the indicated effector/target ratio and a standard ^51Cr release assay was done as described previously (Komori H et al., Clin Cancer Res. 2006 May 1; 12 (9):2689-97).

A further data set deals with A549 (IMP-3+, HLA-A2-). As to the kind of experiment: 51Cr release assay of peptide-induced CTLs against cancer cell line. As to conditions: for cytotoxicity: CTLs from lung cancer patient 14 (SEQ ID NOs: 3 and 5) and patient 4 (SEQ ID NO: 6) (FIG. 5B). As to the method:
as §1

The test system of the next data set is MCF7 (IMP-3-, HLA-A2+). Described as above. The protocol:
as §1

The next data set has as its system SKHep1. The description is as above. As to conditions: CTL lines generated from the healthy donors (FIG. 5D). The protocol: as §1
Another data set deals with SW620. The data set is described as above. To be noted: CTL lines generated from the healthy donors (FIG. 5D). As to the method: as §1
The subject of the next data set is PANC-1 (IMP-3+, HLA-A2+). The data set is described as above. As to the method:
as §1

Data set [3] relates to CD107a on the cell surface of CTLs. Put plainly: CD107a exposure on the cell surface of CTLs (FACS). To be noted: CTLs specific to IMP-3-552-560 stimulated with the named peptide at 1 microgram/ml for 5 hours; mouse IgG staining 0.7%. The protocol: The exposure of CD107a on the cell surface of the CTLs after antigen stimulation was detected by anti-CD107a antibody. […] These CTLs were cultured for 5 hours at 37 degrees C. and were subsequently stained with PE conjugated anti-human CD8 mAb. All peptides were used at a final concentration of 1 microgram/ml. Events shown are gated for CD8^+ T cells.

The mark [4] stands for this setting: CTLs induced from PBMCs of healthy donors, not to T2 pulsed with irrelevant HIV-A2 peptide (FIG. 3B).
Setting [5] is: CTL lines generated from the healthy donors (FIG. 5D).
The mark [6] stands for this setting: CTLs induced from PBMCs of healthy donor 2 (FIG. 5A).
Setting [7] is: CTL lines generated from the healthy donors (FIG. 5C).
Where [8] appears, read: CTLs from lung cancer patient 14 (SEQ ID NOs: 3 and 5) and patient 4 (SEQ ID NO: 6) (FIG. 5B).

Regarding `CC(C)C[C@H](NC(=O)[C@H](CC(C)C)NC(=O)[C@@H](N)CCCNC(=N)N)C(=O)N[C@H](C(=O)N1CCC[C@H]1C(=O)N[C@H](C(=O)N[C@@H](CCC(N)=O)C(=O)N[C@@H](Cc1ccccc1)C(=O)N[C@H](C(=O)O)C(C)C)[C@@H](C)O)C(C)C` [SEQ ID NO: 1, RLLVPTQFV] (H-RLLVPTQFV-OH), the cytotoxicity entry is listed as “exhibited cytotoxicity” in data set [1] and “not against” with MCF7 (IMP-3-, HLA-A2+) (setting [7]). For the same compound, the cytotoxic activity entry in data set [2] (setting [4]) was “exhibited cytotoxic activity”; in the data set on A549 (IMP-3+, HLA-A2-) (setting [5]), “not against”; in the data set with A549 (IMP-3+, HLA-A2-) (setting [6]), “no cytotoxic activity”; in the data set on MCF7 (IMP-3-, HLA-A2+) (setting [5]) it was “not against”; in the data set on MCF7 (IMP-3-, HLA-A2+) (setting [6]), “no cytotoxic activity”; in the data set on SKHep1 it was “exhibited cytotoxic activity”. Besides, the cytotoxic activity entry is on record as “exhibited cytotoxic activity” in the data set on SW620 and “showed cytotoxic activity” in the data set with PANC-1 (IMP-3+, HLA-A2+) (setting [6]).

On to `CC[C@H](C)[C@H](NC(=O)[C@H](CCC(=O)O)NC(=O)[C@H](CCC(N)=O)NC(=O)[C@@H](NC(=O)[C@@H](N)CCCCN)[C@@H](C)CC)C(=O)N[C@@H](CC(C)C)C(=O)N[C@H](C(=O)N[C@@H](CCC(N)=O)C(=O)N[C@H](C(=O)O)C(C)C)[C@@H](C)O` [SEQ ID NO: 3, KIQEILTQV] (H-KIQEILTQV-OH), for which the cytotoxic activity result in data set [2] (CTLs from PBMCs of lung cancer patient 4, no activity to T2 pulsed with HIV peptide (FIG. 4B)) is recorded as “showed cytotoxic activity”; in the data set on A549 (IMP-3+, HLA-A2-) (setting [6]), “no cytotoxic activity”; in the data set with MCF7 (IMP-3-, HLA-A2+) (setting [6]), “no cytotoxic activity”; in the data set on PANC-1 (IMP-3+, HLA-A2+) (setting [8]), “showed cytotoxic activity”; with PANC-1 (IMP-3+, HLA-A2+) (setting [6]) it was “showed cytotoxic activity”. The cytotoxicity result was “without showing cytotoxicity” in the data set on A549 (IMP-3+, HLA-A2-) and “without showing cytotoxicity” with MCF7 (IMP-3-, HLA-A2+) (setting [8]).

For the compound `CC[C@H](C)[C@H](NC(=O)[C@@H](N)CCCCN)C(=O)N1CCC[C@H]1C(=O)N[C@H](C(=O)N[C@@H](CO)C(=O)NCC(=O)N1CCC[C@H]1C(=O)N[C@@H](Cc1ccccc1)C(=O)N[C@@H](CC(C)C)C(=O)O)C(C)C` [SEQ ID NO: 5, KIPVSGPFL] (H-KIPVSGPFL-OH), the cytotoxic activity entry is recorded as “showed cytotoxic activity” in data set [2] (CTLs from PBMCs of lung cancer patient 3, no activity to T2 pulsed with HIV peptide (FIG. 4B)); “no cytotoxic activity” in the data set with A549 (IMP-3+, HLA-A2-) (setting [6]); “no cytotoxic activity” in the data set on MCF7 (IMP-3-, HLA-A2+) (setting [6]); “showed cytotoxic activity” in the data set on PANC-1 (IMP-3+, HLA-A2+) (setting [8]); “showed cytotoxic activity” in the data set on PANC-1 (IMP-3+, HLA-A2+) (setting [6]). The cytotoxicity result was “without showing cytotoxicity” in the data set on A549 (IMP-3+, HLA-A2-) and “without showing cytotoxicity” in the data set on MCF7 (IMP-3-, HLA-A2+) (setting [8]).

As to `CC(C)C[C@H](NC(=O)[C@@H](N)CC(N)=O)C(=O)N[C@@H](CO)C(=O)N[C@@H](CO)C(=O)N[C@@H](C)C(=O)N[C@@H](CCC(=O)O)C(=O)N[C@H](C(=O)N[C@H](C(=O)N[C@H](C(=O)O)C(C)C)C(C)C)C(C)C` [SEQ ID NO: 6, NLSSAEVVV] (H-NLSSAEVVV-OH), the cytotoxicity entry is recorded as “exhibited cytotoxicity” in data set [1]; “without showing cytotoxicity” in the data set with A549 (IMP-3+, HLA-A2-); “not against” in the data set on MCF7 (IMP-3-, HLA-A2+) (setting [7]); “without showing cytotoxicity” with MCF7 (IMP-3-, HLA-A2+) (setting [8]). Also, the cytotoxic activity entry in data set [2] (setting [4]) is “exhibited cytotoxic activity”; with A549 (IMP-3+, HLA-A2-) (setting [5]), “not against”; with A549 (IMP-3+, HLA-A2-) (setting [6]) it was “no cytotoxic activity”; in the data set on MCF7 (IMP-3-, HLA-A2+) (setting [5]), “not against”; in the data set with MCF7 (IMP-3-, HLA-A2+) (setting [6]), “no cytotoxic activity”; in the data set with SKHep1, “exhibited cytotoxic activity”. Further, the cytotoxic activity entry in the data set with SW620 is given as “exhibited cytotoxic activity”; with PANC-1 (IMP-3+, HLA-A2+) (setting [8]), “showed cytotoxic activity”; in the data set with PANC-1 (IMP-3+, HLA-A2+) (setting [6]), “showed cytotoxic activity”.

Regarding SLYNTYATL [HIV peptide], the “CD8+/CD107a+ cells of all CD8+ cells” value in data set [3] came to 1.5%.
